Measured values as given in patent publication US20250313563A1, “GLYCOGEN SYNTHASE KINASE 3 INHIBITORS AND USES THEREOF” (The Broad Institute, Inc., priority 2022, published 2025).

Key:
GSK3α = GSK3α (Homo sapiens (Human), UniProt P49840); assay: pThr231 tau phosphorylation plate-based assay in HEK-huTau cells transfected with GSK3α; assay type: cell-based; conditions: HEK-huTau cells transfected with human GSK3α; 10-point dose response, 2 hours; read-out: GSK3α IC50 (inhibition of pThr231)
Protocol: (§1) HEK293 or SH-SY5Y cells were obtained from American Type Culture Collection (ATCC, Manassas, VA) and cultured in Dulbecco's modified Eagle's medium (DMEM) supplemented with 10% fetal bovine serum (FBS), 10 units/ml penicillin, and 10 μg/ml streptomycin (all reagents were purchased from Gibco, Waltham, MA). Cell cultures were maintained in a humidified 5% (v/v) CO2/air environment at 37° C. When the cells reached 50-80% confluence, they were transfected with a complex consisting of a 3:1 ratio of FuGENE 6 Transfection Reagent (Promega, Madison, WI) and plasmid DNA. Plasmid DNA was balanced out across reactions using an empty plasmid so that the same amount of DNA was added per well. This transfection complex was prepared following the manufacturers protocol and added directly to the cell media for 24 or 48 hours prior to lysis.
(§2) 293T cells stably expressing human 2N4R Tau were transfected with appropriate cDNA plasmids. 24 hours following transfection cells were treated with compound in a 10-point dose-response (from 1000× stocks of compound) and lysates harvested 2 hours later with cell extraction buffer (Life Technologies Cat #BN0001) or RIPA Buffer with Halt protease/phosphatase inhibitors added.
(§3) For pThr231 assay: Lysate was diluted 1:100 in assay buffer and Total Tau and pTau T231 was assessed by plate-based ELISA as per manufacturer instructions (MSD Cat #K15121D-1). Total fluorescence was measured using an Envison plate reader.
(§4) To test the potency and isoform selectivity of GSK3 small molecule inhibitors, HEK-huTau cells were transfected with plasmids containing either human GSK3α or GSK3β. Twenty-four hours after transfection, compounds were added at a 10-point dose response curve (at a range of 30 μM-3 nM) for a total of 2 hours, and cell lysates were probed for total tau and pThr231 using a plate-based assay.

human GSK3β = human GSK3β (Homo sapiens (Human), UniProt P49841); assay: pThr231 tau phosphorylation plate-based assay in HEK-huTau cells transfected with GSK3β; assay type: cell-based; conditions: HEK-huTau cells transfected with human GSK3β; 10-point dose response, 2 hours; read-out: GSK3β IC50 (inhibition of pThr231)
Chain of human GSK3β (P49841 whole entry): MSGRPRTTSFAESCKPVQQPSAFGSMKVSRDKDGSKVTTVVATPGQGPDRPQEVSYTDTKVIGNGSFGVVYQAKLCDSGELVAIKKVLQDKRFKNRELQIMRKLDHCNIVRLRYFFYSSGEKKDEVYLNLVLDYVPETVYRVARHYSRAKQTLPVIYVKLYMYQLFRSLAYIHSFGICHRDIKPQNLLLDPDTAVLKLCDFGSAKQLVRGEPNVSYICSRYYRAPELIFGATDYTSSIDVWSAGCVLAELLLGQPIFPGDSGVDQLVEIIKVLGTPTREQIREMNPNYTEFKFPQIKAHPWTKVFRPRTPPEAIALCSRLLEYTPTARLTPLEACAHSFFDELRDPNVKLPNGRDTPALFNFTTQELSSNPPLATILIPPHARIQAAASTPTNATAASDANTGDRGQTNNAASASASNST
Protocol: as §1, §2, §3, §4

[1] = Drug exposure in blood and brain, free drug concentration in the brain; assay type: in vivo, Sprague Dawley rats; conditions: P10 rats
Protocol: Sprague Dawley rats were bred in-house and litters were injected with compound, I.P. at post-natal day 10. Rats were then euthanized at indicated times following drug administration. For tissue collection, animals were euthanized via decapitation, brains were quickly removed, and bisected sagitally. The right cortex, was isolated, placed into 2 mL microtubes along with a single 5 mm stainless steel bead and the left cortex were placed into 2 mL Lysing Matrix A tubes (MP Biomedicals, Santa Ana, CA), Both tubes were immediately snap frozen in liquid nitrogen.
Aqueous buffered homogenate was created from cortical tissue via bead beater, at a consistent homogenization factor, which was normalized by tissue weight. Total drug in brain was determined by measuring total exposure in brain in ng/ml (cortical tissue) via LC-MS/MS. This was then corrected to free concentration via an experimentally derived fu,br using rapid equilibrium dialysis with brain homogenate.
To determine drug exposure, blood and cortical tissue were analyzed at each time point following dosing.

GSK3β = GSK3β (Rattus norvegicus (Rat), UniProt P18266); assay: In vivo target engagement assay (chemoproteomics, kinobeads), GSK3β; conditions: P10 rat cortex
Chain of GSK3β (P18266 whole entry): as the sequence (P49841 whole entry) above, with V240M, T390P, T392A, A400T, T402A counted along it
Protocol: Chemoproteomics competition was used to evaluate inhibitor selectivity and target engagement in vivo. Frozen cortexes were prepared for homogenization with 1.2 mL of Lysis Buffer (50 mM Tris-HCl, 0.8% NP-40 ((octylphenoxy poly(ethyleneoxy) ethanol)), 5% glycerol, 150 mM NaCl, 1.5 mM MgCl2, 25 mM NaF, 1 mM sodium vanadate, 1 mM DTT, pH 7.5 and supplemented with protease inhibitors). Tissues were homogenized in FastPrep-24 5G instrument at maximum oscillations for 20 seconds. The resulting brain homogenate was clarified by centrifugation for 1 h at 145 000 g, 4° C. The protein concentration of the supernatant was determined by BCA assay and each sample was diluted to final concentration of 5 mg/mL with lysis buffer. […] The dry peptide mixture was reconstituted in 15 μL of 0.1% trifluoro acetic acid and analyzed on ID nanoLC-MS/MS platform using a standardized 140 min method. Peptides were separated on an Easy-Spray column (75 μm×50 cm, PepMAP C18, 1.9 μm) at 250 nL/min, analyzed on a QExactive HF mass spectrometer at data dependent acquisition (DDA) mode with MS1 at 60,000 and MS2 at 15,000 resolution, respectively. […]
To measure direct target engagement of the compound for both GSK3α and GSK3β competitive chemoproteomics methodology was used. […] Enriched proteins were analyzed by liquid chromatography coupled with tandem mass spectrometry. […]

Chain of GSK3α (P49840 whole entry): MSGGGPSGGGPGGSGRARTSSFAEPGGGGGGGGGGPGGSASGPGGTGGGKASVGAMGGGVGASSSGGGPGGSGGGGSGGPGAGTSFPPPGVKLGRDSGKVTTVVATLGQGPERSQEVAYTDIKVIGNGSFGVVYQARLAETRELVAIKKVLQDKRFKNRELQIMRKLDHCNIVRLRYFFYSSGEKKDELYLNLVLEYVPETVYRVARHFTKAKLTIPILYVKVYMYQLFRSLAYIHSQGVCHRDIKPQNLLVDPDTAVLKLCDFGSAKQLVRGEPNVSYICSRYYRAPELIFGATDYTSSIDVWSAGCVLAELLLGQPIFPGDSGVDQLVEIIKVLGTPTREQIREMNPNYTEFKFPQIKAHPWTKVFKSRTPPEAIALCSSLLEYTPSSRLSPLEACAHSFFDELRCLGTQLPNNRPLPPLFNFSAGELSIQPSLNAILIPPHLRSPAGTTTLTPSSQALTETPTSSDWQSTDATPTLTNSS

## CCC1(c2cccc(C(F)(F)F)c2)C2=C(Nc3n[nH]cc31)C(F)C(C)(C)CC2=O (single isomer, unassigned) [Compound 837646, 4-ethyl-8-fluoro-7,7-dimethyl-4-(3-(trifluoromethyl)phenyl)-2,4,6,7,8,9-hexahydro-5H-pyrazolo[3,4-b]quinolin-5-one]
GSK3α
  IC50: 150 nM
Human GSK3β
  IC50: 1000 nM
[1]
  steady Cmax extending post injection: 6 h
GSK3β; 24 hr
  binding to GSK3β, 24 hr: no significant binding detected
GSK3β; three hours after dosing (Cmax, 60 mg/kg)
  target engagement for GSK3β, 3 hours: 40%
